Results taken from US5846742A, “Selecting substances for treating glucocorticoid-mediated inflammation or immune diseases using Tripterygium wilfordii Hook F extracts” (Board of Regents, The University of Texas System, priority 1997, dated 1998).
In brackets after ≈: the same amount, converted by molar mass. Several values for one entry are separate records, joined by “and”; a condition that tells them apart may be missing. Identical values can stand only once. Like-named read-outs stand apart in the source and are kept apart here.

Legend:
[1] = system: T cells; experiment: PHA-induced T cell proliferation, wilforonide (924); assay type: cell-based, human; conditions: for Mean cpm: control 42.0
From the text: The molecular groups responsible for the immune suppressive function of these compounds are unknown, however, the core structure of diterpenoids which may be related to their activity consists of an α-β-unsaturated 5 element lactone which can be identified by Kedde reagents. HPLC was used to fractionate the ethyl acetate extract of TwHF and the Kedde reagents were employed to trace the fractions. Then, the effect of selected fractions on the in vitro IL-2 production and [^3 H]-thymidine incorporation by PHA-activated T cells was determined. Fractions that inhibit these T cell functions were selected and the chromatographic pattern was identified with HPLC. One fraction was further purified with HPLC and crystallized repeatedly; a pure, crystallized compound was obtained and designated "924".
[^3 H]-thymidine was added for the last 14 hours of culture. Each concentration was run in quadruplicate (4 times) and the results for each concentration averaged to provide a mean. The mean cpm×10^3 values were combined and expressed as a percent of T cell inhibition.
or absence of the indicated concentrations of wilforonide for 3 days.
[^3 H]-Thymidine was added for the last 14 hours. Data are from 4
independent experiments.

[2] = system: IL-2 production by T cells; experiment: PHA-induced IL-2 production, wilforonide (924); assay type: cell-based, human; conditions: for IL-2, mean: control 21.395
Protocol: The effects of wilforonide on IL-2 production was also examined. […] Cell-free supernatants were diluted 1 to 80 and the IL-2 content assayed with CTLL-2 cells.

[3] = system: IL-2R; experiment: IL-2R expression by PHA-activated T cells, 924; assay type: cell-based, human
[4] = Viability of PHA-stimulated T cells, 924; assay type: cell-based, human; conditions: t cells; 1,000 ng/ml; 0 ng/ml=22% of control; FIG. 20D; read-out: Cell viability, % of control
[5] = system: PHA-stimulated T cells; experiment: Viability of PHA-stimulated T cells, 924; assay type: cell-based, human
[6] = system: T cells; experiment: Antigen (SK)-induced T cell proliferation, wilforonide; assay type: cell-based, human; conditions: for IC50: 120 h, read-out: ID50, antigen-induced T cell proliferation; for IC50 / inhibition at 0.01 µg/mL: 5 days
Protocol: The cells were allowed to culture for five days. The cultures were pulsed with [^3 H]-thymidine for the last 24 hours of culture. […] ID50 were calculated based on the regression formula by using the fx-3600 calculator. T cells cultured with SK or SK+IL-2 or SK+PMA gave cpm of 1.87×10^3, 4.99×10^3 and 6.67×10^3, respectively.
*T cells were cultured with or without SK(1 mg/ml) or SK plus IL2(50
μ/ml) or SK plus PMA(.2 ng/ml) in the presence or absence of indicated
concentrations of wilforonide for 5 days. Cultures were pulsed with
[^3 H]-thymidine for the last 24 hours. Data represent the mean of th
experiments. ID50 were calculated based on the regression formula by
using the fx3600 calculator. T cells cultured with SK or SL + IL2 or SK +

[7] = Solubility of 924; assay type: physicochemical
Protocol: The dried woody skinned part of the root of TwHF was extracted with ethanol. The solution was concentrated at reduced pressure, and the residue was dissolved in ethyl acetate. This solution was passed through Al2 O3 with ethanol as an eluent. The eluate was evaporated and the residue chromatographed on silica gel with chloroform, chloroform-ether and ethyl acetate as successive eluent. The fractions eluted with chloroform-ether were purified on a preparative HPLC column packed with Nova-Pak C18 and equipped with a 214 detector. Methanol-water was the mobile phase. A fraction having positive reaction to Kedde reagent was collected and extracted with chloroform. The chloroform solution was evaporated to dryness and the residue crystallized in dichloromethane-hexane to yield 924.

[8] = system: T cells; experiment: Antigen (SK)-induced T cell proliferation, wilforonide; assay type: cell-based; conditions: Homo sapiens, read-out: % inhibition of [3H]-thymidine incorporation

C[C@]12CCC3=C(COC3=O)[C@@H]1CCC(=O)C2 (relative stereo) [Wilforonide, naphtho-[1,2-c] furan-3,7(1H,5H)-dione, 4,5a,6,8,9,9a-hexahydro-5a-methyl(5aR-trans)-[104331-87-5]]
cpm, individual experiments 1-4 ([1]; 10 ng/ml, PHA 0.5 μg/ml, 3 days): 23.5 cpm × 10^3 and 37.1 cpm × 10^3 and 57.5 cpm × 10^3 and 36.3 cpm × 10^3 | Mean cpm ([1]; 10 ng/ml): 38.6 cpm × 10^3 | cpm, individual experiments 1-4 ([1]; 50 ng/ml): 30.2 cpm × 10^3 and 35.3 cpm × 10^3 and 57.0 cpm × 10^3 and 44.8 cpm × 10^3 | Mean cpm ([1]; 50 ng/ml): 41.8 cpm × 10^3 | cpm, individual experiments 1-4 ([1]; 100 ng/ml): 13.0 cpm × 10^3 and 37.6 cpm × 10^3 and 55.2 cpm × 10^3 and 26.7 cpm × 10^3 | Mean cpm ([1]; 100 ng/ml): 33.1 cpm × 10^3 | cpm, individual experiments 1-4 ([1]; 200 ng/ml): 6.8 cpm × 10^3 and 33.9 cpm × 10^3 and 56.5 cpm × 10^3 and 26.4 cpm × 10^3 | Mean cpm ([1]; 200 ng/ml): 30.9 cpm × 10^3 | cpm, individual experiments 1-4 ([1]; 500 ng/ml): 0.3 cpm × 10^3 and 19.7 cpm × 10^3 and 30.9 cpm × 10^3 and 11.3 cpm × 10^3 | Mean cpm ([1]; 500 ng/ml): 15.6 cpm × 10^3 | T cell proliferation ([1]; 1,000 ng/ml, FIG. 20C): no cell proliferation was evident | inhibition at 0.01 µg/mL ([1]; Homo sapiens, T-cell, 72 h, 10 ng/ml, PHA 0.5 μg/ml, 3 days): 8.09% | IC50 ([1]; Homo sapiens, T-cell, 72 h, PHA 0.5 μg/ml, 3 days, read-out: ID50, PHA-induced T cell proliferation): 0.391 µg/mL (≈ 1.78 µM) | inhibition at 0.001 µg/mL ([1]; Homo sapiens, T-cell, 1 ng/ml, PHA, read-out: Degree of inhibition of T cell proliferation): 14.6% | inhibition at 0.05 µg/mL ([1]; Homo sapiens, T-cell, 50 ng/ml, PHA): 0.48% | inhibition at 0.1 µg/mL ([1]; Homo sapiens, T-cell, 100 ng/ml, PHA, read-out: % inhibition): 21.2% | inhibition at 0.1 µg/mL ([1]; Homo sapiens, T-cell, 100 ng/ml, PHA, read-out: Degree of inhibition of T cell proliferation): 54.2% | inhibition at 0.2 µg/mL ([1]; Homo sapiens, T-cell, 200 ng/ml, PHA): 26.4% | inhibition at 0.5 µg/mL ([1]; Homo sapiens, T-cell, 500 ng/ml, PHA): 62.9% | IL-2, individual experiments 1-4 ([2]; 10 ng/ml, PHA 1 μg/ml, overnight): 1.628 unit/ml and 20.723 unit/ml and 27.374 unit/ml and 3.385 unit/ml | IL-2, mean ([2]; 10 ng/ml): 13.278 unit/ml | IL-2, individual experiments 1-4 ([2]; 50 ng/ml): 1.664 unit/ml and 26.983 unit/ml and 4.509 unit/ml and 6.042 unit/ml | IL-2, mean ([2]; 50 ng/ml): 9.795 unit/ml | IL-2, individual experiments 1-4 ([2]; 100 ng/ml): 0.800 unit/ml and 11.160 unit/ml and 10.170 unit/ml and 4.982 unit/ml | IL-2, mean ([2]; 100 ng/ml): 6.803 unit/ml | IL-2, individual experiments 1-4 ([2]; 200 ng/ml): 0.850 unit/ml and 10.301 unit/ml and 8.502 unit/ml and 1.773 unit/ml | IL-2, mean ([2]; 200 ng/ml): 5.357 unit/ml | inhibition at 0.01 µg/mL ([2]; Homo sapiens, T-cell, 10 ng/ml): 37.9% | inhibition at 0.05 µg/mL ([2]; Homo sapiens, T-cell, 50 ng/ml): 54.2% | inhibition at 0.1 µg/mL ([2]; Homo sapiens, T-cell, 100 ng/ml): 68.2% | inhibition at 0.2 µg/mL ([2]; Homo sapiens, T-cell, 200 ng/ml): 75% | IC50 ([2]; Homo sapiens, T-cell, PHA 1 μg/ml, overnight, read-out: ID50, PHA-induced IL-2 production): 0.0421 µg/mL (≈ 0.191 µM) | IL-2R expression ([3]; 500 ng/ml): did not affect the IL-2R expression | IL-2R expression ([3]; PHA-activated T cells): no effect | viability [4]: 35% | Viability of PHA-stimulated T cells ([5]; 1 ng/ml up to 1000 ng/ml): did not affect the viability of PHA-stimulated T cells | Cell viability ([5]; 1 to 500 ng/ml): did not differ significantly in terms of cell viability | in vitro ID50/LD50 of T cell proliferation ([5]; t cells): more than 10 | IC50 ([6]; Homo sapiens, T-cell, SK + IL-2 (50 u/ml)): 0.476 µg/mL | IC50 ([6]; Homo sapiens, T-cell, SK + PMA (0.2 ng/ml)): 0.613 µg/mL | IC50 ([6]; Homo sapiens, T-cell, SK): 0.127 µg/mL (≈ 0.577 µM) | inhibition at 0.01 µg/mL ([6]; Homo sapiens, T-cell, SK + IL-2, 10 ng/ml, read-out: % inhibition of [3H]-thymidine incorporation): 19.6% | inhibition at 0.5 µg/mL ([6]; Homo sapiens, T-cell, SK + IL-2, 500 ng/ml, read-out: % inhibition of [3H]-thymidine incorporation): 61.7% | inhibition at 0.01 µg/mL ([6]; Homo sapiens, T-cell, SK + PMA, 10 ng/ml, read-out: % inhibition of [3H]-thymidine incorporation): 22.7% | inhibition at 0.05 µg/mL ([6]; Homo sapiens, T-cell, SK + PMA, 50 ng/ml, read-out: % inhibition of [3H]-thymidine incorporation): 17.7% | inhibition at 0.5 µg/mL ([6]; Homo sapiens, T-cell, SK + PMA, 500 ng/ml, read-out: % inhibition of [3H]-thymidine incorporation): 53.3% | inhibition at 0.01 µg/mL ([6]; Homo sapiens, T-cell, SK, 10 ng/ml, read-out: % inhibition of [3H]-thymidine incorporation): 42.1% | Inhibition of response to SK on adding IL2 or PMA ([6]; low concentrations): partially overcome by adding IL2 or PMA | Solubility [7]: soluble in ethanol, and ethanol and chloroform | inhibition at 0.05 µg/mL ([8]; SK + IL-2, 50 ng/ml): 12.4% | inhibition at 0.1 µg/mL ([8]; SK + IL-2, 100 ng/ml): 14.5% | inhibition at 1 µg/mL ([8]; SK + IL-2, 1,000 ng/ml): 86.2% | inhibition at 0.1 µg/mL ([8]; SK + PMA, 100 ng/ml): 20.3% | inhibition at 1 µg/mL ([8]; SK + PMA, 1,000 ng/ml): 65.4% | inhibition at 0.05 µg/mL ([8]; SK, 50 ng/ml): 44.5% | inhibition at 0.1 µg/mL ([8]; SK, 100 ng/ml): 49.1% | inhibition at 0.5 µg/mL ([8]; SK, 500 ng/ml): 75.2% | inhibition at 1 µg/mL ([8]; SK, 1,000 ng/ml): 84.2%
